Common to all, as to assay type: cell-based, Human
One test relates to cleaved caspase 3. In words: Cleaved caspase 3 by Western blotting. The settings on record: PC3 cells, hypoxia; MK2206 1 μM, PX-866 10 μM. Here is the method:
FIG. 6 illustrates mitochondrial Akt regulation of stress signaling in hypoxia. A and B: PC3 cells in normoxia (N) or hypoxia (H) were treated with vehicle (Veh) or MK2206 (1 μM) (A) or transduced with pLKO or PDK1-directed shRNA (B) and analyzed for ROS production by CELLROX Green staining and flow cytometry. Upper panels, representative tracings. Bottom panels, quantification of ROS production under the various conditions tested (n=2). Mean±SD for both datasets. *, p=0.01-0.02; **, p=0.004; ns, not significant. C: The experimental conditions are as in (A) and treated cells were analyzed for cell viability by direct cell counting relative to control (n=3). Mean±SEM. ***, p<0.0001. D: PC3 cells in normoxia (N) or hypoxia (H) were incubated with vehicle (Veh) or small molecule inhibitors of Akt (MK2206, 1 μM) or PI3K (PX-866, 10 μM) and analyzed by Western blotting. E: PC3 cells stably silenced for PDK1 were reconstituted with vector, WT PDK1 or T346A PDK1 mutant and analyzed for cell viability by direct cell counting relative to control (n=3). Mean±SEM. ***, p=0.0002. F and G: PC3 cells in normoxia (N) or hypoxia (H) were transduced with pLKO or PDK1-directed shRNA (F) or control siRNA (Ctrl) or Akt1- or Akt2-directed siRNA (G), and analyzed by Western blotting. […] For all panels, data were analyzed using the two-sided unpaired Student's t test. […]

A further test concerns mitochondrial Akt. In words: Akt recruitment to mitochondria in hypoxia, subcellular fractions by Western blotting. As to conditions: PC3 cells, 17-AAG 5 μM for 6 hr, NAC 1 mM, MitoTempo 25 μM. Here is the method:
FIG. 1 illustrates mitochondrial phosphoproteome in hypoxia. A: Phosphoproteome of prostate adenocarcinoma PC3 cells in hypoxia versus normoxia. Identified phosphosites met a minimum MaxQuant localization probability of 0.75 and a score difference of 5. Fold changes were calculated from the normalized Heavy/Light SILAC ratio. Six Akt target proteins showing increased phosphorylation in hypoxia are indicated. […] B: Ingenuity pathway analysis of mitochondrial phospho- and global proteome in hypoxia. […] D: PC3 cells in normoxia (N) or hypoxia (H) were fractionated in cytosol (Cyto) or mitochondrial (Mito) extracts and analyzed by Western blotting. pAkt, phosphorylated Akt (Ser473). TCE, total cell extracts. E: PC3 cells in hypoxia (H) were exposed to reoxygenation (O2) for the indicated time intervals and analyzed by Western blotting. N, normoxia. F: The indicated subcellular fractions isolated from normoxic (N) or hypoxic (H) PC3 cells were analyzed with an antibody to the Akt consensus phosphorylation site RxRxxS/T (Akt cons Ab) by Western blotting. Mito Sup, supernatant of mitochondrial extracts after preclearing with Akt cons Ab. G: PC3 cells in normoxia (N) or hypoxia (H) were treated with vehicle (Veh) or Hsp90 small molecule inhibitor 17-AAG (5 μM for 6 hr), and cytosolic (Cyto) or mitochondrial (Mito) extracts were analyzed by Western blotting. H: PC3 cells in normoxia (N) or hypoxia (H) were treated with vehicle (Veh), the antioxidant N-acetyl cysteine (NAC, 1 mM) or mitochondria-specific ROS scavenger, MitoTempo (MT, 25 μM), and subcellular fractions were analyzed by Western blotting. See also FIG. 9.
Human prostate adenocarcinoma PC3 and DU145, glioblastoma (GBM) LN229, and breast adenocarcinoma MCF-7 or MDA-231 cells were obtained from the American Type Culture Collection (ATCC, Manassas, Va.), and maintained in culture according to the supplier's specifications. Hypoxic treatment was carried out using an enclosed chamber (BioSpherix) flushed with a nitrogen and CO2 gas. […]

Another test relates to PC3 cells. Kind of test: Cell cycle: DNA content by propidium iodide staining and flow cytometry. The settings on record: hypoxia, DCA 10 mM, MK2206 5 μM. From the text: FIG. 13, related to FIG. 5, illustrates additional data regarding mitochondrial Akt signaling supports tumor growth in hypoxia in vivo. A: Human intracranial GBM samples (U251 cells) grown in immunocompromised mice were harvested at the indicated time intervals after stereotactic injection, and the number of mitotic cells was quantified. HPF, high-power microscopy field (n=6-7). Mean±SEM. *, p=0.01. B: Human intracranial GBM samples as in (A) were harvested at day 20 after stereotactic injection of U251 cells in immunocompromised mice, and analyzed for expression of HIF1α, phosphorylated PDK1 (pT346 Ab) or phosphorylated PDHE1α by immunohistochemistry. H&E, hematoxylin and eosin. Yellow lines were used to delineate the tumor mass within mice brain. Scale bar, 100 μm. […] C: Quantification of mitotic cells expressing phosphorylated PDK1 (pT346 Ab) in intracranial GBM harvested from immunocompromised mice at the indicated time intervals (n=5-7). […] D: Intracranial GBM samples as in (A) were analyzed for correlation between HIF1α luciferase activity and the number of PDK1-phosphorylated mitotic cells (pT346 Ab). […], 95% C.I.=0.1-0.9; p=0.02. […] E: PC3 cells in normoxia (N) or hypoxia (H) were treated with vehicle (Veh) or small molecule antagonists of PDK1 (DCA, 10 mM) or Akt (MK2206, 5 μM) and analyzed for DNA content by propidium iodide staining and flow cytometry. […]
Background: Flow cytometry measures light scatter and fluorescence of single cells or particles in a stream.

As for `C=CCN(/C=C1/C(=O)O[C@H](COC)[C@@]2(C)C1=C(O)C(=O)C1=C2[C@H](OC(C)=O)C[C@]2(C)C(=O)CC[C@@H]12)CC=C` [PX-866], the “cleaved caspase 3 (marker of apoptosis)” value in the test with cleaved caspase 3 was “did not result in caspase activation”.

Regarding `CC(=O)N[C@@H](CS)C(=O)O` [NAC, N-acetyl cysteine], the “accumulation / recruitment of Akt to mitochondria” value (from here on “accumulation / recruitment of Akt”) in the test on mitochondrial Akt is listed as “no effect”.

Take `CC1(C)CC(NC(=O)C[P+](c2ccccc2)(c2ccccc2)c2ccccc2)CC(C)(C)N1[O]` [MitoTempo]: the “accumulation / recruitment of Akt” value in the test with mitochondrial Akt is “inhibited Akt recruitment to mitochondria”.

With `O=C([O-])C(Cl)Cl.[Na+]` [DCA, sodium dichloroacetate], in the test with PC3 cells, the S-phase progression entry is on record as “suppressed S-phase progression” and the “population of tumor cells in G1/sub-G1 phase” value was “increased”.

For the molecule `C=CCNC1=C2C[C@@H](C)C[C@H](OC)[C@H](O)[C@@H](C)/C=C(\C)[C@H](OC(N)=O)[C@@H](OC)/C=C\C=C(/C)C(=O)NC(=CC1=O)C2=O` [17-AAG, 17-allylaminogeldanamycin], the “accumulation / recruitment of Akt” value with mitochondrial Akt is “prevented the accumulation of mitochondrial Akt”.

For the origin of these results see patent publication US11208478B2, “Methods of detecting and treating a tumor expressing pT346 PDK1” (The Wistar Institute of Anatomy and Biology, priority 2016, dated 2021).
